The subject of one data set is FGFR. Put plainly: Cell-free enzymatic kinase inhibition assay, FGFR. The settings on record: 1 mM ATP. Type of data set: biochemical.
Data set [1] in a line: Dissolution of compound in molten PEG. Type of data set: physicochemical. The settings on record: PEG 3350 and PEG 8000 melted at about 60° C. to 95° C. The text has this: The present inventors have discovered that certain active agents have a higher solubility in the presence of PEG than in water. […] This pellet forms a colloidal like suspension when the pellet dissolves in water. Furthermore, using blends of high and low molecular weight PEGs can make erodible gel with the compound uniformly dispersed in it (see examples). This provides an injection dosage form for delivery of insoluble compounds via posterior juxtascleral or intravitreal administration, which enhances the solubility of the compounds and achieves the desired bioavailability. In the formulations of the present invention, the compound forms a solid solution in the matrix of the PEG.

The values below come from patent US20070173538A1 (Alcon, Inc., priority 2005, published 2007).

The term IC50 denotes the concentration needed to halve the response being measured. Low readings indicate greater potency in that assay, high ones weaker potency in that assay.

On to `Cc1ccc(F)c(NC(=O)Nc2ccc(-c3cccc4[nH]nc(N)c34)cc2)c1` [RTK Inhibitor, N-[4-(3-amino-1H-indazol-4-yl)phenyl]-N′-(2-fluoro-5-methylphenyl)urea], for which the half-maximal inhibitory concentration (IC50) in the data set with FGFR was greater than 12.5 µM. Also, in data set [1], the “Solubility in PEG” value is on record as “dissolve completely”.
